From patent US6130227A, “7-Substituted camptothecin derivatives and methods for inhibiting the growth of tumor cells therewith” (priority 1996, dated 2000) come the findings set out here.

Data set [1] concerns NCI-H460 human lung tumor xenograft growing i.p. In words: Survival of nude mice bearing i.p. NCI-H460 tumor xenograft. Format: in vivo. The text has this:
A preclinical efficacy study was designed to evaluate the antitumor activity of the compounds of the present invention in comparison with topotecan (a first generation camptothecin already in clinical trials) as reference drug. The human tumor line NCI-H460, a non small cell lung carcinoma, was chosen because of the high expression of topoisomerase I, the known target of camptothecin drugs. This tumor model is relatively resistant to in vivo treatment with conventional cytotoxic agents (e.g., doxorubicin, cisplatin). Tumor cells were injected i.p. into nude mice (2.5×10^6 cell/mouse) of about 10 weeks and 3 days later the drugs were injected in the peritoneal cavity (10 ml/kg b.w.) to allow a direct contact of the drugs with tumor cells. Both topotecan and the compound of formula (I) described in Example 1 below, were delivered q4dx4 times. This schedule has been reported as optimal for camptothecin drugs in other preclinical studies. Mice were observed daily for death. The antitumor activity of the drugs was expressed as T/C %, i.e. the ratio between the median survival time of the drug-treated mice (T) and survival of the control untreated mice (C)×100. Treated mice, dead before the first control mouse or shortly after treatment with reduced body weight, were considered dead for drug toxicity. Mice still alive over 100 days after tumor cell inoculum were considered as long-term survivors (LTS). […]

Data set [2] in a line: Antitumor activity by the oral route. Format: in vivo.
[3] abbreviates: Experiment 1, 10 mg/kg i.p. q4d x 4.
[4] abbreviates: Experiment 1, 10 mg/kg i.p. q4d x 4, from day 3.
Where [5] appears, read: Experiment 2, 10 mg/kg i.p. q4d x 4.
[6] abbreviates: Experiment 2, 10 mg/kg i.p. q4d x 4, from day 3.
Where [7] appears, read: Experiment 2, 12 mg/kg i.p. q4d x 4.
Where [8] appears, read: Experiment 2, 12 mg/kg i.p. q4d x 4, from day 3.
[9] abbreviates: Experiment 2, 14.4 mg/kg i.p. q4d x 4.
Where [10] appears, read: Experiment 2, 14.4 mg/kg i.p. q4d x 4, from day 3.
[11] abbreviates: Experiment 1, 6.6 mg/kg i.p. q4d x 4.

Molecules are shown by their SMILES.

In the case of `CC[C@@]1(O)C(=O)OCc2c1cc1n(c2=O)Cc2cc3c(CN(C)C)c(O)ccc3nc2-1` [Topotecan, reference compound], the “LTS (100 days)” value in data set [1] (setting [3]) is recorded as 2/8; in data set [1] (setting [5]) it was 1/7; in data set [1] (setting [7]), 0/7; in data set [1] (setting [9]) it was 0/7. In addition, the “No. of toxic/total no. mice” value is reported as 0/8 in data set [1] (setting [3]), 4/7 in data set [1] (setting [7]) and 5/7 in data set [1] (setting [9]). Moreover, the “% T/C” value in data set [1] (setting [4]) is 215%; in data set [1] (setting [6]), 261%; in data set [1] (setting [8]), 77%; in data set [1] (setting [10]) it was 77%.

Consider `CC[C@@]1(O)C(=O)OCc2c1cc1n(c2=O)Cc2c-1nc1ccccc1c2C#N` [Example 1, 20S-camptothecin-7-carbonitrile], for which the “Activity by the oral route” value in data set [2] (oral) is reported as “active”. For the same molecule, in data set [2] (oral CPT83 vs topotecan i.v. with optimal treatment schedule), the “Activity compared with topotecan” value is listed as “more active than topotecan”. For the same molecule, the “LTS (100 days)” value is 2/8 in data set [1] (setting [11]); 3/8 in data set [1] (setting [3]); 1/7 in data set [1] (setting [5]); 1/7 in data set [1] (setting [7]); 2/7 in data set [1] (setting [9]). For the same molecule, the “No. of toxic/total no. mice” value in data set [1] (setting [11]) is given as 0/8; in data set [1] (setting [3]), 0/8; in data set [1] (setting [5]), 0/7; in data set [1] (setting [7]), 0/7; in data set [1] (Experiment 2, 14.4 mg/kg i.p. q4d x 4, 14.4 mg/kg), 1/7; in data set [1] (Experiment 2, 14.4 mg/kg i.p. q4d x 4, listed as CPT83, 14.4 mg/kg), 1. Moreover, the “% T/C” value was determined as 157% in data set [1] (Experiment 1, 6.6 mg/kg i.p. q4d x 4, from day 3); 258% in data set [1] (setting [4]); 233% in data set [1] (setting [6]); 200% in data set [1] (setting [8]); 277% in data set [1] (setting [10]). In addition, in data set [1] (NCI-H460 tumor xenograft), the “Tolerability compared with topotecan” value is recorded as “better tolerability than topotecan”. Also, the T/C % values entry in data set [1] (at all doses tested) was “higher than 200%”. For the same molecule, the “Drug efficacy compared with topotecan” value in data set [1] (experiment 1, slowly-growing tumor) is “superior to that of topotecan”. In data set [1] (experiment 2, rapidly growing tumor), the “Efficacy in terms of T/C % compared with topotecan” value is given as “comparable to that of topotecan”.
